According to DBAASP:
≈ marks a conversion by molar mass, not a printed value.

Columns and labels:
Assay in all cases: ≥ marks a high value that may be exact or a test limit, other limits are often not marked, values filed in µg/mL are converted to µM
Escherichia coli = test system: Escherichia coli
Escherichia coli K88 = test system: Escherichia coli K88
[1] = test system: Salmonella enterica subsp. enterica serovar Typhimurium C77-31
Pseudomonas aeruginosa = test system: Pseudomonas aeruginosa
Klebsiella pneumoniae = test system: Klebsiella pneumoniae
[2] = test system: Salmonella enterica subsp. enterica serovar Pullorum C79-13
[3] = test system: Salmonella enterica subsp. enterica serovar Typhimurium ATCC 14028
Acinetobacter baumannii = test system: Acinetobacter baumannii
[4] = test system: Pseudomonas aeruginosa CICC 21630
[5] = test system: Pseudomonas aeruginosa PAO1
[6] = test system: Pseudomonas aeruginosa ATCC 27853
Escherichia coli UB1005 = test system: Escherichia coli UB1005
Escherichia coli K99 = test system: Escherichia coli K99
[7] = test system: Pseudomonas aeruginosa CICC 21625
[8] = test system: Escherichia coli ATCC 25922
Staphylococcus aureus = test system: Staphylococcus aureus
Candida albicans = test system: Candida albicans
[9] = test system: Staphylococcus aureus ATCC 29213
[10] = test system: Candida albicans ATCC 90029
[11] = test system: Staphylococcus epidermidis ATCC 12228
[12] = test system: Escherichia coli CVCC 1515

## CC(C)C[C@H](NC(=O)[C@@H]1CCCN1C(=O)[C@H](CCCN=C(N)N)NC(=O)[C@H](CC(C)C)NC(=O)[C@H](CC(C)C)NC(=O)[C@@H]1CCCN1C(=O)[C@H](CCCN=C(N)N)NC(=O)[C@H](CC(C)C)NC(=O)[C@H](CC(C)C)NC(=O)[C@@H]1CCCN1C(=O)[C@H](CCCN=C(N)N)NC(=O)[C@H](CC(C)C)NC(=O)[C@H](CC(C)C)NC(=O)[C@@H]1CCCN1C(=O)[C@H](CCCN=C(N)N)NC(=O)[C@H](CC(C)C)NC(=O)[C@H](CC(C)C)NC(=O)[C@@H]1CCCN1C(=O)[C@H](CCCN=C(N)N)NC(=O)[C@@H](N)CC(C)C)C(N)=O [LRPLLRPLLRPLLRPLLRPL]
Escherichia coli
  MIC: 4 µM (≈ 9.66 µg/mL)
Escherichia coli K88
  MIC: 2 µM (≈ 4.83 µg/mL)
[1]
  MIC: 4 µM (≈ 9.66 µg/mL)
Pseudomonas aeruginosa
  MIC: 32 µM (≈ 77.3 µg/mL)
Klebsiella pneumoniae
  MIC: 8 µM (≈ 19.3 µg/mL)
[2]
  MIC: 2 µM (≈ 4.83 µg/mL)
[3]
  MIC: 4 µM (≈ 9.66 µg/mL)
Acinetobacter baumannii
  MIC: 2 µM (≈ 4.83 µg/mL)
[4]
  MIC: 16 µM (≈ 38.6 µg/mL)
[5]
  MIC: 32 µM (≈ 77.3 µg/mL)
[6]
  MIC: 32 µM (≈ 77.3 µg/mL)
Escherichia coli UB1005
  MIC: 4 µM (≈ 9.66 µg/mL)
Escherichia coli K99
  MIC: 4 µM (≈ 9.66 µg/mL)
[7]
  MIC: ≥ 32 µM
[8]
  MIC: 4 µM (≈ 9.66 µg/mL)

## CC(C)C[C@H](NC(=O)[C@H](CCCN=C(N)N)NC(=O)[C@H](Cc1cnc[nH]1)NC(=O)[C@H](CCCN=C(N)N)NC(=O)[C@H](CC(C)C)NC(=O)[C@H](CC(C)C)NC(=O)[C@@H](N)CCCCN)C(=O)N[C@@H](CC(C)C)C(=O)N[C@H](C(=O)N[C@H](C(=O)N[C@@H](CC(C)C)C(=O)N[C@@H](C)C(=O)O)[C@@H](C)O)C(C)C [KLLRHRLLVTLA]
Escherichia coli
  MIC: 4.36 µM (≈ 6.25 µg/mL)
Staphylococcus aureus
  MIC: 4.36 µM (≈ 6.25 µg/mL)
Candida albicans
  MIC: > 69.8 µM
[9]
  MIC: 4.36 µM (≈ 6.25 µg/mL)
Pseudomonas aeruginosa
  MIC: 8.72 µM (≈ 12.5 µg/mL)
[10]
  MIC: ≥ 69.8 µM
[8]
  MIC: 2.18 µM (≈ 3.12 µg/mL)

## CC(C)C[C@H](NC(=O)[C@H](Cc1cnc[nH]1)NC(=O)[C@H](CO)NC(=O)[C@H](C)NC(=O)[C@H](CC(C)C)NC(=O)[C@@H](NC(=O)[C@@H](NC(=O)[C@H](CC(C)C)NC(=O)[C@H](CC(C)C)NC(=O)[C@H](CO)NC(=O)[C@H](Cc1cnc[nH]1)NC(=O)[C@H](CO)NC(=O)[C@H](CC(C)C)NC(=O)[C@H](CC(C)C)NC(=O)[C@H](CCCCN)NC(=O)[C@H](Cc1ccccc1)NC(=O)[C@H](CCCN=C(N)N)NC(=O)[C@@H](N)C(C)C)C(C)C)[C@@H](C)O)C(=O)O [VRFKLLSHSLLVTLASHL]
Escherichia coli
  MIC: 6.14 µM (≈ 12.5 µg/mL)
Staphylococcus aureus
  MIC: 3.07 µM (≈ 6.25 µg/mL)
Candida albicans
  MIC: 12.3 µM (≈ 25 µg/mL)
[9]
  MIC: 6.14 µM (≈ 12.5 µg/mL)
Pseudomonas aeruginosa
  MIC: 3.07 µM (≈ 6.25 µg/mL)
[10]
  MIC: 12.3 µM (≈ 25 µg/mL)
[8]
  MIC: 3.07 µM (≈ 6.25 µg/mL)

## CC(C)C[C@H](NC(=O)[C@@H]1CCCN1C(=O)[C@H](CCCN=C(N)N)NC(=O)[C@H](CC(C)C)NC(=O)[C@H](CC(C)C)NC(=O)[C@@H]1CCCN1C(=O)[C@H](CCCN=C(N)N)NC(=O)[C@H](CC(C)C)NC(=O)[C@H](CC(C)C)NC(=O)[C@@H]1CCCN1C(=O)[C@H](CCCN=C(N)N)NC(=O)[C@H](CC(C)C)NC(=O)[C@H](CC(C)C)NC(=O)[C@@H]1CCCN1C(=O)[C@H](CCCN=C(N)N)NC(=O)[C@H](CC(C)C)NC(=O)[C@H](CC(C)C)NC(=O)[C@@H]1CCCN1C(=O)[C@H](CCCN=C(N)N)NC(=O)[C@H](CC(C)C)NC(=O)[C@H](CC(C)C)NC(=O)[C@@H]1CCCN1C(=O)[C@H](CCCN=C(N)N)NC(=O)[C@@H](N)CC(C)C)C(N)=O [LRPLLRPLLRPLLRPLLRPLLRPL]
Escherichia coli
  MIC: 2 µM (≈ 5.79 µg/mL)
Escherichia coli K88
  MIC: 2 µM (≈ 5.79 µg/mL)
[1]
  MIC: 2 µM (≈ 5.79 µg/mL)
Pseudomonas aeruginosa
  MIC: 32 µM (≈ 92.6 µg/mL)
Klebsiella pneumoniae
  MIC: 8 µM (≈ 23.2 µg/mL)
[2]
  MIC: 2 µM (≈ 5.79 µg/mL)
[3]
  MIC: 4 µM (≈ 11.6 µg/mL)
Acinetobacter baumannii
  MIC: 2 µM (≈ 5.79 µg/mL)
[4]
  MIC: 8 µM (≈ 23.2 µg/mL)
[5]
  MIC: 4 µM (≈ 11.6 µg/mL)
[6]
  MIC: 8 µM (≈ 23.2 µg/mL)
Escherichia coli UB1005
  MIC: 2 µM (≈ 5.79 µg/mL)
Escherichia coli K99
  MIC: 2 µM (≈ 5.79 µg/mL)
[7]
  MIC: ≥ 32 µM
[8]
  MIC: 2 µM (≈ 5.79 µg/mL)

## CC(C)C[C@H](NC(=O)[C@H](Cc1c[nH]c2ccccc12)NC(=O)[C@H](C)NC(=O)[C@H](CCCCN)NC(=O)[C@H](C)NC(=O)[C@H](C)N)C(=O)N[C@@H](CCCCN)C(=O)N[C@@H](CC(C)C)C(=O)N[C@@H](Cc1c[nH]c2ccccc12)C(=O)N[C@@H](C)C(=O)N[C@@H](CCCCN)C(=O)N[C@@H](C)C(=O)N[C@@H](C)C(N)=O [AAKAWLKLWAKAA]
Escherichia coli K88
  MIC: 8 µM (≈ 11.4 µg/mL)
[9]
  MIC: 64 µM (≈ 91.3 µg/mL)
[3]
  MIC: 32 µM (≈ 45.7 µg/mL)
[11]
  MIC: 64 µM (≈ 91.3 µg/mL)
[6]
  MIC: 64 µM (≈ 91.3 µg/mL)
Escherichia coli UB1005
  MIC: 16 µM (≈ 22.8 µg/mL)
[12]
  MIC: 16 µM (≈ 22.8 µg/mL)
[8]
  MIC: 2 µM (≈ 2.85 µg/mL)
